In ChEMBL document CHEMBL4342475, “Structure-Bioactivity Relationships of Lapatinib Derived Analogs against Schistosoma mansoni” (ACS Med Chem Lett, 2020):
Values after ≈ are worked out from the molar mass of the structure shown. Active and inactive are the calls of the source. No cut-off for these calls is given here.

Legend:
Schistosoma mansoni [1] = assay: Antiparasitic activity against Schistosoma mansoni infected in Hamster assessed as severity score at 10 uM incubated for 1 hr; assay type: functional, organism-based
Schistosoma mansoni [2] = assay: Antiparasitic activity against Schistosoma mansoni infected in Hamster assessed as severity score at 10 uM incubated for 5 hrs; assay type: functional, organism-based
Schistosoma mansoni [3] = assay: Antiparasitic activity against Schistosoma mansoni infected in Hamster assessed as severity score at 10 uM incubated for 24 hrs; assay type: functional, organism-based
Schistosoma mansoni [4] = assay: Antiparasitic activity against Schistosoma mansoni infected in Hamster assessed as severity score at 10 uM incubated for 48 hrs; assay type: functional, organism-based
[5] = Cytotoxicity against human HepG2 cells assessed as reduction in cell viability 48 hrs by MTT assay; assay type: cell-based; conditions: read-out: TC50
[6] = Aqueous solubility of compound incubated for 24 hrs by LC-MS/MS analysis; assay type: physicochemical; conditions: buffer, 24 h
[7] = Protein binding in human plasma at 1 uM by LC-MS/MS analysis; assay type: ADME, cell-free
[8] = Metabolic stability in human liver microsomes assessed as intrinsic clearance by LC-MS/MS analysis; assay type: ADME, Microsome

Structure (SMILES): Cc1cc2c(Nc3cnccn3)ccnc2cc1-c1cnc(N2CCCNCC2)nc1
- Activity (Schistosoma mansoni [1]): inactive
- Activity (Schistosoma mansoni [2]): inactive
- Activity (Schistosoma mansoni [3]): inactive
- Activity (Schistosoma mansoni [4]): inactive
- CC50 at 48 h [5]: 13 µM
- solubility [6]: 1000 µM (≈ 413 µg/mL)
- PPB [7]: 70%
- intrinsic clearance [8]: 13 µL/min/mg
